Experimental data reported in the OligoGym collection.
Bases are written 5' to 3'; sugars and linkages follow in the same order, as letters with counts (s phosphorothioate, o phosphodiester; PS: all linkages phosphorothioate). C may stand for cytosine or 5-methylcytosine; the collection does not tell. l = locked nucleic acid (LNA); d = 2'-deoxy (DNA)

Biological target: HIF1A
Assay: HeLa, 100 nM transfected, 24 h, mean of 3
Conditions: ASO

Sequence | caspase activation (% of PBS control)
ACTGCCTTCTTAC (sugars l1 d1 l1 d7 l3, PS) | 257
ACTGCCTTCTTAC (sugars l1 d1 l1 d8 l2, PS) | 191
ACTGCCTTCTTAC (sugars l1 d1 l1 d9 l1, PS) | 188
ACTGCCTTCTTAC (sugars l1 d1 l2 d6 l3, PS) | 247
ACTGCCTTCTTAC (sugars l1 d1 l2 d7 l2, PS) | 217
ACTGCCTTCTTAC (sugars l1 d1 l2 d8 l1, PS) | 222
ACTGCCTTCTTAC (sugars l1 d2 l1 d6 l3, PS) | 126
ACTGCCTTCTTAC (sugars l1 d2 l1 d7 l2, PS) | 112
ACTGCCTTCTTAC (sugars l1 d2 l1 d8 l1, PS) | 119
ACTGCCTTCTTAC (sugars l1 d9 l1 d1 l1, PS) | 140
ACTGCCTTCTTAC (sugars l1 d9 l3, PS) | 140
ACTGCCTTCTTAC (sugars l1 d10 l2, PS) | 120
ACTGCCTTCTTAC (sugars l1 d11 l1, PS) | 130
ACTGCCTTCTTAC (sugars l2 d1 l1 d6 l3, PS) | 166
ACTGCCTTCTTAC (sugars l2 d1 l1 d7 l2, PS) | 162
ACTGCCTTCTTAC (sugars l2 d1 l1 d8 l1, PS) | 177
ACTGCCTTCTTAC (sugars l2 d8 l1 d1 l1, PS) | 199
ACTGCCTTCTTAC (sugars l2 d8 l3, PS) | 209
ACTGCCTTCTTAC (sugars l2 d9 l2, PS) | 167
ACTGCCTTCTTAC (sugars l2 d10 l1, PS) | 171
ACTGCCTTCTTAC (sugars l3 d7 l1 d1 l1, PS) | 383
ACTGCCTTCTTAC (sugars l3 d7 l3, PS) | 403
ACTGCCTTCTTAC (sugars l3 d8 l2, PS) | 339
ACTGCCTTCTTAC (sugars l3 d9 l1, PS) | 332
ACTGCCTTCTTAC (sugars l4 d6 l1 d1 l1, PS) | 393
ACTGCCTTCTTAC (sugars l4 d6 l3, PS) | 410

Sequence | caspase activation (% of PBS control)
ACTGCCTTCTTAC (sugars l4 d7 l2, PS) | 406
ACTGCCTTCTTAC (sugars l4 d8 l1, PS) | 387
ACTGCCTTCTTAC (sugars lddlddddddldl, PS) | 118
ACTGCCTTCTTAC (sugars ldldddddddldl, PS) | 208
ACTGCCTTCTTAC (sugars ldllddddddldl, PS) | 217
ACTGCCTTCTTAC (sugars lldlddddddldl, PS) | 146
CAAGCATCCTGTA (sugars l1 d1 l1 d7 l3, PS) | 198
CAAGCATCCTGTA (sugars l1 d1 l1 d8 l2, PS) | 171
CAAGCATCCTGTA (sugars l1 d1 l1 d9 l1, PS) | 121
CAAGCATCCTGTA (sugars l1 d1 l2 d6 l3, PS) | 134
CAAGCATCCTGTA (sugars l1 d1 l2 d7 l2, PS) | 151
CAAGCATCCTGTA (sugars l1 d1 l2 d8 l1, PS) | 145
CAAGCATCCTGTA (sugars l1 d2 l1 d6 l3, PS) | 97
CAAGCATCCTGTA (sugars l1 d2 l1 d7 l2, PS) | 107
CAAGCATCCTGTA (sugars l1 d2 l1 d8 l1, PS) | 101
CAAGCATCCTGTA (sugars l1 d9 l1 d1 l1, PS) | 92.1
CAAGCATCCTGTA (sugars l1 d9 l3, PS) | 135
CAAGCATCCTGTA (sugars l1 d10 l2, PS) | 111
CAAGCATCCTGTA (sugars l1 d11 l1, PS) | 100
CAAGCATCCTGTA (sugars l2 d1 l1 d6 l3, PS) | 119
CAAGCATCCTGTA (sugars l2 d1 l1 d7 l2, PS) | 133
CAAGCATCCTGTA (sugars l2 d1 l1 d8 l1, PS) | 123
CAAGCATCCTGTA (sugars l2 d8 l1 d1 l1, PS) | 175
CAAGCATCCTGTA (sugars l2 d8 l3, PS) | 250
CAAGCATCCTGTA (sugars l2 d9 l2, PS) | 189
CAAGCATCCTGTA (sugars l2 d10 l1, PS) | 142

Sequence | caspase activation (% of PBS control)
CAAGCATCCTGTA (sugars l3 d7 l1 d1 l1, PS) | 302
CAAGCATCCTGTA (sugars l3 d7 l3, PS) | 437
CAAGCATCCTGTA (sugars l3 d8 l2, PS) | 302
CAAGCATCCTGTA (sugars l3 d9 l1, PS) | 237
CAAGCATCCTGTA (sugars l4 d6 l1 d1 l1, PS) | 159
CAAGCATCCTGTA (sugars l4 d6 l3, PS) | 171
CAAGCATCCTGTA (sugars l4 d7 l2, PS) | 212
CAAGCATCCTGTA (sugars l4 d8 l1, PS) | 194
CAAGCATCCTGTA (sugars lddlddddddldl, PS) | 100
CAAGCATCCTGTA (sugars ldldddddddldl, PS) | 136
CAAGCATCCTGTA (sugars ldllddddddldl, PS) | 130
CAAGCATCCTGTA (sugars lldlddddddldl, PS) | 142
GCAAGCATCCTGT (sugars l1 d1 l1 d7 l3, PS) | 239
GCAAGCATCCTGT (sugars l1 d1 l1 d8 l2, PS) | 188
GCAAGCATCCTGT (sugars l1 d1 l1 d9 l1, PS) | 165
GCAAGCATCCTGT (sugars l1 d1 l2 d6 l3, PS) | 186
GCAAGCATCCTGT (sugars l1 d1 l2 d7 l2, PS) | 220
GCAAGCATCCTGT (sugars l1 d1 l2 d8 l1, PS) | 191
GCAAGCATCCTGT (sugars l1 d2 l1 d6 l3, PS) | 154
GCAAGCATCCTGT (sugars l1 d2 l1 d7 l2, PS) | 151
GCAAGCATCCTGT (sugars l1 d2 l1 d8 l1, PS) | 187
GCAAGCATCCTGT (sugars l1 d9 l1 d1 l1, PS) | 124
GCAAGCATCCTGT (sugars l1 d9 l3, PS) | 147
GCAAGCATCCTGT (sugars l1 d10 l2, PS) | 112
